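Test compounds were applied to cells in 96-well plates for 48 hours at 5 doses. The concentration for 50% growth inhibition is given as GI50. The concentration for full growth arrest is given as TGI.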
Key:
Assay in all cases: NCI anticancer screen, dose series, 48 h
786-0 renal = system: 786-0 renal
A498 renal = system: A498 renal
A549 NSCLC = system: A549 NSCLC
ACHN renal = system: ACHN renal
BT-549 breast = system: BT-549 breast
CAKI-1 renal = system: CAKI-1 renal
COLO 205 colon = system: COLO 205 colon
DU-145 prostate = system: DU-145 prostate
EKVX NSCLC = system: EKVX NSCLC
HCC-2998 colon = system: HCC-2998 colon
HCT-116 colon = system: HCT-116 colon
HCT-15 colon = system: HCT-15 colon
HOP-62 NSCLC = system: HOP-62 NSCLC
HOP-92 NSCLC = system: HOP-92 NSCLC
HS 578T breast = system: HS 578T breast
HT29 colon = system: HT29 colon
IGROV1 ovarian = system: IGROV1 ovarian
K-562 leukemia = system: K-562 leukemia
KM12 colon = system: KM12 colon
LOX IMVI melanoma = system: LOX IMVI melanoma
M14 melanoma = system: M14 melanoma
MALME-3M melanoma = system: MALME-3M melanoma
MCF7 breast = system: MCF7 breast
MDA-MB-231 breast = system: MDA-MB-231 breast
MDA-MB-435 = system: MDA-MB-435
MOLT-4 leukemia = system: MOLT-4 leukemia
NCI-H226 lung = system: NCI-H226 lung
NCI-H23 lung = system: NCI-H23 lung
NCI-H460 lung = system: NCI-H460 lung
NCI-H522 lung = system: NCI-H522 lung
NCI/ADR-RES ovarian = system: NCI/ADR-RES ovarian
OVCAR-3 ovarian = system: OVCAR-3 ovarian
OVCAR-4 ovarian = system: OVCAR-4 ovarian
OVCAR-5 ovarian = system: OVCAR-5 ovarian
OVCAR-8 ovarian = system: OVCAR-8 ovarian
PC-3 prostate = system: PC-3 prostate
RPMI-8226 leukemia = system: RPMI-8226 leukemia
RXF 393 renal = system: RXF 393 renal
SF-268 CNS = system: SF-268 CNS
SF-295 CNS = system: SF-295 CNS
SF-539 CNS = system: SF-539 CNS
SK-MEL-2 melanoma = system: SK-MEL-2 melanoma
SK-MEL-28 melanoma = system: SK-MEL-28 melanoma
SK-MEL-5 melanoma = system: SK-MEL-5 melanoma
SK-OV-3 ovarian = system: SK-OV-3 ovarian
SN12C renal = system: SN12C renal
SNB-19 CNS = system: SNB-19 CNS
SR leukemia = system: SR leukemia
SW-620 colon = system: SW-620 colon
T-47D breast = system: T-47D breast
TK-10 renal = system: TK-10 renal
U251 CNS = system: U251 CNS
UACC-257 melanoma = system: UACC-257 melanoma
UACC-62 melanoma = system: UACC-62 melanoma
UO-31 renal = system: UO-31 renal

Nc1nc(SCc2ccccc2)nc2[nH]ncc12
GI50 (786-0 renal): 18.7 µM | TGI (786-0 renal): 36 µM | GI50 (A498 renal): 10 µM | TGI (A498 renal): 22.2 µM | GI50 (A549 NSCLC): 13.6 µM | TGI (A549 NSCLC): 29.1 µM | GI50 (ACHN renal): 15.5 µM | TGI (ACHN renal): 31.6 µM | GI50 (BT-549 breast): 17.3 µM | TGI (BT-549 breast): 35.1 µM | GI50 (CAKI-1 renal): 15.2 µM | TGI (CAKI-1 renal): 28.8 µM | GI50 (COLO 205 colon): 17.1 µM | TGI (COLO 205 colon): 53.6 µM | GI50 (DU-145 prostate): 21.2 µM | TGI (DU-145 prostate): 55.4 µM | GI50 (EKVX NSCLC): 16.1 µM | TGI (EKVX NSCLC): 35.8 µM | GI50 (HCC-2998 colon): 19.6 µM | TGI (HCC-2998 colon): 34.4 µM | GI50 (HCT-116 colon): 13.2 µM | TGI (HCT-116 colon): 26.3 µM | GI50 (HCT-15 colon): 20.4 µM | TGI (HCT-15 colon): > 100 µM | GI50 (HOP-62 NSCLC): 18.7 µM | TGI (HOP-62 NSCLC): 33.4 µM | GI50 (HOP-92 NSCLC): 2.54 µM | TGI (HOP-92 NSCLC): 11.7 µM | GI50 (HS 578T breast): 14.3 µM | TGI (HS 578T breast): 34.5 µM | GI50 (HT29 colon): 17.1 µM | TGI (HT29 colon): 49.3 µM | GI50 (IGROV1 ovarian): 19.4 µM | TGI (IGROV1 ovarian): 41.8 µM | GI50 (K-562 leukemia): 14.3 µM | TGI (K-562 leukemia): > 100 µM | GI50 (KM12 colon): 14.1 µM | TGI (KM12 colon): 28.4 µM | GI50 (LOX IMVI melanoma): 20.8 µM | TGI (LOX IMVI melanoma): 58.2 µM | GI50 (M14 melanoma): 19.4 µM | TGI (M14 melanoma): 34.8 µM | GI50 (MALME-3M melanoma): 11.7 µM | TGI (MALME-3M melanoma): 24.3 µM | GI50 (MCF7 breast): 11.8 µM | TGI (MCF7 breast): 26.6 µM | GI50 (MDA-MB-231 breast): 16.4 µM | TGI (MDA-MB-231 breast): 31.7 µM | GI50 (MDA-MB-435): 15.8 µM | TGI (MDA-MB-435): 29.9 µM | GI50 (MOLT-4 leukemia): 25.7 µM | TGI (MOLT-4 leukemia): > 100 µM | GI50 (NCI-H226 lung): 13.4 µM | TGI (NCI-H226 lung): 27.4 µM | GI50 (NCI-H23 lung): 12.6 µM | TGI (NCI-H23 lung): 25.8 µM | GI50 (NCI-H460 lung): 12.3 µM | TGI (NCI-H460 lung): 29.4 µM | GI50 (NCI-H522 lung): 17.9 µM | TGI (NCI-H522 lung): 46 µM | GI50 (NCI/ADR-RES ovarian): 12.3 µM | TGI (NCI/ADR-RES ovarian): 27.8 µM | GI50 (OVCAR-3 ovarian): 12.6 µM | TGI (OVCAR-3 ovarian): 25.7 µM | GI50 (OVCAR-4 ovarian): 12.2 µM | TGI (OVCAR-4 ovarian): 37.1 µM | GI50 (OVCAR-5 ovarian): 17.6 µM | TGI (OVCAR-5 ovarian): 31.7 µM | GI50 (OVCAR-8 ovarian): 25.9 µM | TGI (OVCAR-8 ovarian): > 100 µM | GI50 (PC-3 prostate): 13.7 µM | TGI (PC-3 prostate): 28.7 µM | GI50 (RPMI-8226 leukemia): 7.76 µM | TGI (RPMI-8226 leukemia): 46 µM | GI50 (RXF 393 renal): 3.62 µM | TGI (RXF 393 renal): 11.5 µM | GI50 (SF-268 CNS): 20.5 µM | TGI (SF-268 CNS): 69.2 µM | GI50 (SF-295 CNS): 14.8 µM | TGI (SF-295 CNS): 29 µM | GI50 (SF-539 CNS): 19 µM | TGI (SF-539 CNS): 41.7 µM | GI50 (SK-MEL-2 melanoma): 20.7 µM | TGI (SK-MEL-2 melanoma): 48.9 µM | GI50 (SK-MEL-28 melanoma): 17.1 µM | TGI (SK-MEL-28 melanoma): 35.9 µM | GI50 (SK-MEL-5 melanoma): 12 µM | TGI (SK-MEL-5 melanoma): 25.1 µM | GI50 (SK-OV-3 ovarian): 20 µM | TGI (SK-OV-3 ovarian): 39.1 µM | GI50 (SN12C renal): 16.9 µM | TGI (SN12C renal): 31.3 µM | GI50 (SNB-19 CNS): 19.8 µM | TGI (SNB-19 CNS): 42.4 µM | GI50 (SR leukemia): 18 µM | TGI (SR leukemia): 51.1 µM | GI50 (SW-620 colon): 17.9 µM | TGI (SW-620 colon): 37.6 µM | GI50 (T-47D breast): 4.15 µM | TGI (T-47D breast): 15.6 µM | GI50 (TK-10 renal): 10 µM | TGI (TK-10 renal): 21.9 µM | GI50 (U251 CNS): 14.9 µM | TGI (U251 CNS): 33.6 µM | GI50 (UACC-257 melanoma): 14.6 µM | TGI (UACC-257 melanoma): 28.1 µM | GI50 (UACC-62 melanoma): 14.4 µM | TGI (UACC-62 melanoma): 27.9 µM | GI50 (UO-31 renal): 18 µM | TGI (UO-31 renal): 38.4 µM

— PubChem BioAssay (NCI)
